Results as given in patent US11464770B2, “Anticancer pharmaceutical composition” (NATIONAL CANCER CENTER, priority 2016, dated 2022).
Where two headings read alike, the source gives them in different places.

Assays:
[1] = system: bladder cancer cell lines; assay: Cell based assay, cell viability (CellTiter-Glo), bladder cancer cell lines; conditions: 72 hours treatment, 0 to 2 μM, CellTiter-Glo
Method: (§1) Commercially available bladder cancer, prostate cancer, lung cancer, breast cancer, blood cancer, pancreatic cancer, colorectal cancer, brain cancer, neuroblastoma, melanoma, liver cancer, cervical carcinoma, ovarian cancer, renal cancer, and papilloma cell lines were each treated with trypsin-EDTA and cultured, followed by being seeded in each well of a 96 well plate. After 24 hours of treatment at constant temperature, the respective cells were treated with the candidate compound so that a final concentration became 0 to 2 μM. The treated cells were additionally cultured for 72 hours, and cell viability was measured by using an ATP detection method (CellTiter-Glo® Luminescent Cell Viability Assay, Promega).

liver cancer cell lines = assay: Cell based assay, cell viability (CellTiter-Glo), liver cancer cell lines; conditions: Homo sapiens, SK-HEP1; SK-HEP-1 cell line
Method: as §1

[2] = 253J cells, read-out: IC50, bladder cancer cell line 253J
[3] = 5637 cells, read-out: IC50, bladder cancer cell line 5637
[4] = Homo sapiens, T-24, T24 cells, read-out: IC50, bladder cancer cell line T24
[5] = Homo sapiens, UMUC3, UM-UC-3 cells, read-out: IC50, bladder cancer cell line UM-UC-3
[6] = Homo sapiens, J82 cells, read-out: IC50, bladder cancer cell line J82
[7] = Homo sapiens, KU-19-19 cells, read-out: IC50, bladder cancer cell line KU-19-19
[8] = MBT-2 cells, read-out: IC50, bladder cancer cell line MBT-2

Row | Compound | IC50 [1, 2] | IC50 [1, 3] | IC50 [1, 4] | IC50 [1, 5] | IC50 [1, 6] | IC50 [1, 7] | IC50 [1, 8] | IC50 (liver cancer cell lines)
1 | CC(=O)c1c([S+](C)[O-])[nH]c2c(Br)ccc(Cl)c2c1=O (stereo not drawn) [Compound 1, 3-acetyl-8-bromo-5-chloro-2-(methylsulfinyl)quinolin-4(1H)-one] | 1350 nM | 1670 nM | 1340 nM | 1510 nM | > 2000 nM | 1940 nM | 1190 nM | 1230 nM
2 | CC(=O)c1c(SCc2ccccc2)[nH]c2c(Br)ccc(Cl)c2c1=O [Compound 3, 3-acetyl-2-(benzylthio)-8-bromo-5-chloroquinolin-4(1H)-one] | > 2000 nM | > 2000 nM | > 2000 nM | > 2000 nM | > 2000 nM | > 2000 nM | > 2000 nM | > 2000 nM
3 | CC(=O)c1c([S+](C)[O-])[nH]c2c(Cl)ccc(Cl)c2c1=O (stereo not drawn) [Compound 6, 3-acetyl-5,8-dichloro-2-(methylsulfinyl)quinolin-4(1H)-one] | 1220 nM | 1690 nM | 1420 nM | 1460 nM | > 2000 nM | > 2000 nM | 1440 nM | 1380 nM
4 | CSc1c(C(C)=O)c(=O)c2cc(F)ccc2n1C [Compound 7, 3-acetyl-6-fluoro-1-methyl-2-(methylthio)quinolin-4(1H)-one] | > 2000 nM | > 2000 nM | > 2000 nM | > 2000 nM | > 2000 nM | > 2000 nM | > 2000 nM | > 2000 nM
5 | CSc1[nH]c2ccc(F)cc2c(=O)c1C(C)=O [Compound 8, 1-(6-fluoro-4-hydroxy-2-(methylthio)quinolin-3-yl)ethan-1-one] | > 2000 nM | > 2000 nM | > 2000 nM | > 2000 nM | > 2000 nM | > 2000 nM | > 2000 nM | > 2000 nM
6 | CC(=O)c1c([S+](C)[O-])n(C(=O)c2ccc(Br)cc2)c2c(Br)ccc(Cl)c2c1=O (stereo not drawn) [Compound 9, 3-acetyl-8-bromo-1-(4-bromobenzoyl)-5-chloro-2-(methylsulfinyl)quinolin-4(1H)-one] | 1100 nM | 1630 nM | 1160 nM | 1180 nM | > 2000 nM | 1970 nM | 1200 nM | 990 nM
7 | CC(=O)c1c(SCc2ccc(Cl)cc2)[nH]c2c(Br)ccc(Cl)c2c1=O [Compound 10, 3-acetyl-8-bromo-5-chloro-2-((4-chlorobenzyl)thio)quinolin-4(1H)-one] | > 2000 nM | > 2000 nM | > 2000 nM | > 2000 nM | > 2000 nM | > 2000 nM | > 2000 nM | > 2000 nM
8 | CC(=O)c1c([S+]([O-])Cc2ccc(Cl)cc2)[nH]c2c(Br)ccc(Cl)c2c1=O (stereo not drawn) [Compound 11, 3-acetyl-8-bromo-5-chloro-2-((4-chlorobenzyl)sulfinyl)quinolin-4(1H)-one] | – | > 2000 nM | 1830 nM | – | > 2000 nM | – | – | > 2000 nM
9 | CC(=O)c1c(Sc2ccc(Br)cc2)[nH]c2c(Br)ccc(Cl)c2c1=O [Compound 16, 3-acetyl-8-bromo-2-((4-bromophenyl)thio)-5-chloroquinolin-4(1H)-one] | > 2000 nM | > 2000 nM | > 2000 nM | > 2000 nM | > 2000 nM | > 2000 nM | > 2000 nM | > 2000 nM
10 | CC(=O)c1c([S+]([O-])c2ccc(Br)cc2)[nH]c2c(Br)ccc(Cl)c2c1=O (stereo not drawn) [Compound 17, 3-acetyl-8-bromo-2-((4-bromophenyl)sulfinyl)-5-chloroquinolin-4(1H)-one] | > 2000 nM | > 2000 nM | > 2000 nM | – | > 2000 nM | – | – | > 2000 nM
11 | CSc1c(C(C)=O)c(=O)c2c(Cl)ccc(Br)c2n1C(C)=O [Compound 18, 1,1′-(8-bromo-5-chloro-2-(methylthio)-4-oxoquinoline-1,3(4H)-diyl)bis(ethan-1-one)] | > 2000 nM | > 2000 nM | > 2000 nM | > 2000 nM | > 2000 nM | > 2000 nM | > 2000 nM | > 2000 nM
12 | CC(=O)c1c([S+]([O-])Cc2ccccc2)n(C(=O)c2ccc(Br)cc2)c2c(Br)ccc(Cl)c2c1=O (stereo not drawn) [Compound 20, 3-acetyl-2-(benzylsulfinyl)-8-bromo-1-(4-bromobenzoyl)-5-chloroquinolin-4(1H)-one] | > 2000 nM | > 2000 nM | > 2000 nM | > 2000 nM | > 2000 nM | > 2000 nM | > 2000 nM | > 2000 nM
13 | CC(=O)c1c(S(C)(=O)=O)n(C(=O)c2ccc(Br)cc2)c2c(Br)ccc(Cl)c2c1=O [Compound 21, 3-acetyl-8-bromo-1-(4-bromobenzoyl)-5-chloro-2-(methylsulfonyl)quinolin-4(1H)-one] | > 2000 nM | > 2000 nM | > 2000 nM | > 2000 nM | > 2000 nM | > 2000 nM | > 2000 nM | > 2000 nM
14 | CC(=O)c1c([S+](C)[O-])n(Cc2ccc(F)c(Cl)c2)c2c(Br)ccc(Cl)c2c1=O (stereo not drawn) [Compound 22, 3-acetyl-8-bromo-5-chloro-1-(3-chloro-4-fluorobenzyl)-2-(methylsulfinyl)quinolin-4(1H)-one] | > 2000 nM | > 2000 nM | > 2000 nM | > 2000 nM | > 2000 nM | > 2000 nM | > 2000 nM | > 2000 nM
15 | CC(=O)c1c(SCc2ccccc2)n(C(=O)c2ccc(Br)cc2)c2c(Br)ccc(Cl)c2c1=O [Compound 23, 3-acetyl-2-(benzylthio)-8-bromo-1-(4-bromobenzoyl)-5-chloroquinolin-4(1H)-one] | > 2000 nM | > 2000 nM | > 2000 nM | > 2000 nM | > 2000 nM | > 2000 nM | > 2000 nM | > 2000 nM
16 | CC(=O)c1c([S+]([O-])C(C)C)[nH]c2c(Br)ccc(Cl)c2c1=O (stereo not drawn) [Compound 25, 3-acetyl-8-bromo-5-chloro-2-(isopropylsulfinyl)quinolin-4(1H)-one] | > 2000 nM | > 2000 nM | > 2000 nM | > 2000 nM | > 2000 nM | > 2000 nM | > 2000 nM | > 2000 nM
17 | CC(=O)c1c([S+]([O-])C(C)c2ccccc2)[nH]c2c(Br)ccc(Cl)c2c1=O (stereo not drawn) [Compound 26, 3-acetyl-8-bromo-5-chloro-2-((1-phenylethyl)sulfinyl)quinolin-4(1H)-one] | > 2000 nM | 1600 nM | > 2000 nM | – | > 2000 nM | – | – | > 2000 nM
18 | CC(=O)c1c(SCc2cccc(C#N)c2)[nH]c2c(Br)ccc(Cl)c2c1=O [Compound 27, 3-(((3-acetyl-8-bromo-5-chloro-4-oxo-1,4-dihydroquinolin-2-yl)thio)methyl)benzonitrile] | > 2000 nM | > 2000 nM | > 2000 nM | > 2000 nM | > 2000 nM | > 2000 nM | > 2000 nM | > 2000 nM
19 | CC(=O)c1c(SCc2ccc(F)c(Cl)c2)[nH]c2c(Br)ccc(Cl)c2c1=O [Compound 30, 3-acetyl-8-bromo-5-chloro-2-((3-chloro-4-fluorobenzyl)thio)quinolin-4(1H)-one] | > 2000 nM | > 2000 nM | > 2000 nM | > 2000 nM | > 2000 nM | > 2000 nM | > 2000 nM | > 2000 nM

Other lines, results leading:

Row | IC50 [1, 2] | IC50 [1, 3] | IC50 [1, 4] | IC50 [1, 5] | IC50 [1, 6] | IC50 [1, 7] | IC50 [1, 8] | IC50 (liver cancer cell lines) | Compound
20 | > 2000 nM | > 2000 nM | > 2000 nM | > 2000 nM | > 2000 nM | > 2000 nM | > 2000 nM | > 2000 nM | CSc1[nH]c2c(Br)ccc(Cl)c2c(=O)c1C(C)=O [Compound 2, 3-acetyl-8-bromo-5-chloro-2-(methylthio)quinolin-4(1H)-one]
21 | > 2000 nM | > 2000 nM | > 2000 nM | > 2000 nM | > 2000 nM | > 2000 nM | > 2000 nM | > 2000 nM | CSc1c(C(C)=O)c(=O)c2c(Cl)ccc(Br)c2n1C [Compound 5, 3-acetyl-8-bromo-5-chloro-1-methyl-2-(methylthio)quinolin-4(1H)-one]
22 | > 2000 nM | > 2000 nM | > 2000 nM | > 2000 nM | > 2000 nM | > 2000 nM | > 2000 nM | > 2000 nM | CC(=O)c1c(Sc2ccccc2)[nH]c2c(Br)ccc(Cl)c2c1=O [Compound 12, 3-acetyl-8-bromo-5-chloro-2-(phenylthio)quinolin-4(1H)-one]
23 | > 2000 nM | > 2000 nM | > 2000 nM | – | > 2000 nM | – | – | > 2000 nM | CC(=O)c1c([S+]([O-])c2ccccc2)[nH]c2c(Br)ccc(Cl)c2c1=O (stereo not drawn) [Compound 13, 3-acetyl-8-bromo-5-chloro-2-(phenylsulfinyl)quinolin-4(1H)-one]
24 | > 2000 nM | > 2000 nM | > 2000 nM | > 2000 nM | > 2000 nM | > 2000 nM | > 2000 nM | > 2000 nM | COc1ccccc1Sc1[nH]c2c(Br)ccc(Cl)c2c(=O)c1C(C)=O [Compound 14, 3-acetyl-8-bromo-5-chloro-2-((2-methoxyphenyl)thio)quinolin-4(1H)-one]
25 | > 2000 nM | > 2000 nM | > 2000 nM | – | > 2000 nM | – | – | > 2000 nM | COc1ccccc1[S+]([O-])c1[nH]c2c(Br)ccc(Cl)c2c(=O)c1C(C)=O (stereo not drawn) [Compound 15, 3-acetyl-8-bromo-5-chloro-2-((2-methoxyphenyl)sulfinyl)quinolin-4(1H)-one]
26 | > 2000 nM | > 2000 nM | > 2000 nM | > 2000 nM | > 2000 nM | > 2000 nM | > 2000 nM | > 2000 nM | CC(=O)c1c([S+](C)[O-])n(C(C)=O)c2c(Br)ccc(Cl)c2c1=O (stereo not drawn) [Compound 19, 1,1′-(8-bromo-5-chloro-2-(methylsulfinyl)-4-oxoquinoline-1,3(4H)-diyl)bis(ethan-1-one)]
27 | > 2000 nM | > 2000 nM | > 2000 nM | > 2000 nM | > 2000 nM | > 2000 nM | > 2000 nM | > 2000 nM | CC(=O)c1c(SC(C)C)[nH]c2c(Br)ccc(Cl)c2c1=O [Compound 24, 3-acetyl-8-bromo-5-chloro-2-(isopropylthio)quinolin-4(1H)-one]
28 | – | 1030 nM | 820 nM | – | 1330 nM | – | – | 760 nM | CC(=O)c1c([S+]([O-])Cc2cccc(C#N)c2)[nH]c2c(Br)ccc(Cl)c2c1=O (stereo not drawn) [Compound 28, 3-(((3-acetyl-8-bromo-5-chloro-4-oxo-1,4-dihydroquinolin-2-yl)sulfinyl)methyl)benzonitrile]
